Results reported in ChEMBL document CHEMBL2074030, “The systemic exposure of an N-methyl-D-aspartate receptor antagonist is limited in mice by the P-glycoprotein and breast cancer resistance protein efflux transporters” (Drug Metab Dispos, 2004).

Molecular target: ATP-dependent translocase ABCB1 (Mus musculus, UniProt P21447)
Assay: TP_TRANSPORTER: transepithelial transport (apical to basal) in Mdr1a-expressing LLC-PK1 cells
Format: functional, cell-based
Conditions: pig

Sequence of ATP-dependent translocase ABCB1 (P21447 whole entry): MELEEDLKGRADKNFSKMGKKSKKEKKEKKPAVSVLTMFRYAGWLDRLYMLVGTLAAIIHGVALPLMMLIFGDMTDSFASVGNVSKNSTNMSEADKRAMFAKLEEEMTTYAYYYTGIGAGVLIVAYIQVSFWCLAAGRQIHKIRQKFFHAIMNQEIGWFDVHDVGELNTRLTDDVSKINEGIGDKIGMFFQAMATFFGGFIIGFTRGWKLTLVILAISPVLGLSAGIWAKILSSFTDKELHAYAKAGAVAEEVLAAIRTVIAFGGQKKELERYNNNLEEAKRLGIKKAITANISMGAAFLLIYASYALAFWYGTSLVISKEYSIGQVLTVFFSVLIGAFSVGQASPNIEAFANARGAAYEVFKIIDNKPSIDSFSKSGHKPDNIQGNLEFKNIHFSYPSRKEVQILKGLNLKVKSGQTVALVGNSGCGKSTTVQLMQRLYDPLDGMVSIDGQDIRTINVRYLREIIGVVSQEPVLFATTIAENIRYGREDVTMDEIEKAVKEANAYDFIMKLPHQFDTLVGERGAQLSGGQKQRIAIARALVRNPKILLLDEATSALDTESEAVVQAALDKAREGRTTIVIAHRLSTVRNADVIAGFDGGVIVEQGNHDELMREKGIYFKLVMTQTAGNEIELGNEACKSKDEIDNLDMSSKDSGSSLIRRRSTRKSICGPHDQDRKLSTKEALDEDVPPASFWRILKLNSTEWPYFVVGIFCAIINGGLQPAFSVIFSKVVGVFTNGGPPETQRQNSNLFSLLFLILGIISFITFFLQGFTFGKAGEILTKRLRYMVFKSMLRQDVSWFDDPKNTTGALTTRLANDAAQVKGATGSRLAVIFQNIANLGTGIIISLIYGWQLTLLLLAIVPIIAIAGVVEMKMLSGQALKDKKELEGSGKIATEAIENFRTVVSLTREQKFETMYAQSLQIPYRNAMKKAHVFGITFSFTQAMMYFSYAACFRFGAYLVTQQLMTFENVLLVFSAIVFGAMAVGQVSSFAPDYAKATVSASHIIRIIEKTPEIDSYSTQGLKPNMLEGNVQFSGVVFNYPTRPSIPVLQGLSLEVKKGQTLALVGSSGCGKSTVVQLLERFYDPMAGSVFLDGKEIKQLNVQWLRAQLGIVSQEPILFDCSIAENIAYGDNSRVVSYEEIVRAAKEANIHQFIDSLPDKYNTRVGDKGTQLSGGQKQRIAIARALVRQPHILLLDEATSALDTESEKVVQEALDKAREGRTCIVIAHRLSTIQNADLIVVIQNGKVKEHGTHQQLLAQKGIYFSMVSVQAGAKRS

Structure (SMILES): O=C(O)c1[nH]c2cc(Cl)cc(Cl)c2c1/C=C1\CCN(c2ccccc2)C1=O
- Activity: is not a substrate [-]

Structure (SMILES): CC(C)CN(C[C@@H](O)[C@H](Cc1ccccc1)NC(=O)O[C@H]1CCOC1)S(=O)(=O)c1ccc(N)cc1 [AMPRENAVIR]
- Activity: substrate [+]
